According to ChEMBL document CHEMBL1671859, “bla(IMP-4) in different genetic contexts in Enterobacteriaceae isolates from Australia” (2008):

Assays:
Type in all cases: functional
Klebsiella pneumoniae [1] = assay: Antibacterial activity against Klebsiella pneumoniae isolate Kp2730 harboring IncL/M plasmid and blaIMP-4-qacG2-aacA4-catB3 and dfrA12-orfF-aadA2 arrays by Etest method in presence of clavulanic acid
Enterobacter cloacae = assay: Antibacterial activity against Enterobacter cloacae isolate El3518 harboring IncL/M plasmid and blaIMP-4-qacG2-aacA4-catB3 array by Etest method in presence of clavulanic acid
Serratia marcescens [2] = assay: Antibacterial activity against Serratia marcescens isolate Sm2723 harboring IncL/M plasmid and blaIMP-4-qacG2-aacA4-catB3 array by Etest method in presence of clavulanic acid
Klebsiella pneumoniae [3] = assay: Antibacterial activity against Klebsiella pneumoniae isolate Kp38009 harboring IncL/M plasmid and blaIMP-4-qacG2-aacA4-catB3 array by Etest method in presence of clavulanic acid
Klebsiella pneumoniae [4] = assay: Antibacterial activity against Klebsiella pneumoniae isolate Kp38045 harboring IncL/M plasmid and blaIMP-4-qacG2-aacA4-catB3 array by Etest method in presence of clavulanic acid
Escherichia coli [5] = assay: Antibacterial activity against Escherichia coli isolate Ec9381 harboring IncL/M plasmid and blaIMP-4-qacG2-aacA4-catB3 array by Etest method in presence of clavulanic acid
Morganella morganii [6] = assay: Antibacterial activity against Morganella morganii isolate Mm1229 harboring IncL/M plasmid and blaIMP-4-qacG2-aacA4-catB3 array by Etest method in presence of clavulanic acid
Klebsiella pneumoniae [7] = assay: Antibacterial activity against Klebsiella pneumoniae isolate Kp3799 harboring IncL/M plasmid and blaIMP-4-qacG2-aacA4-catB3 array by Etest method in presence of clavulanic acid
Klebsiella oxytoca [8] = assay: Antibacterial activity against Klebsiella oxytoca isolate Ko0426 harboring IncL/M plasmid and blaIMP-4-qacG2-aacA4-catB3 array by Etest method in presence of clavulanic acid
Klebsiella oxytoca [9] = assay: Antibacterial activity against Klebsiella oxytoca isolate Ko1156 harboring IncL/M plasmid and blaIMP-4-qacG2-aacA4-catB3 array by Etest method in presence of clavulanic acid
Citrobacter amalonaticus [10] = assay: Antibacterial activity against Citrobacter amalonaticus isolate Ca1614 harboring IncL/M plasmid and blaIMP-4-qacG2-aacA4-catB3 array by Etest method in presence of clavulanic acid
Morganella morganii [11] = assay: Antibacterial activity against Morganella morganii isolate Mm1614 harboring IncL/M plasmid and blaIMP-4-qacG2-aacA4-catB3 array by Etest method in presence of clavulanic acid
Klebsiella pneumoniae [12] = assay: Antibacterial activity against Klebsiella pneumoniae isolate Kp4614 in presence of clavulanic acid
Serratia marcescens [13] = assay: Antibacterial activity against Serratia marcescens isolate Sm220 harboring IncA/C plasmid and blaIMP-4-qacG2-aacA4-catB3 array by Etest method in presence of clavulanic acid
Serratia marcescens [14] = assay: Antibacterial activity against Serratia marcescens isolate Sm203 harboring IncA/C plasmid and blaIMP-4-qacG2-aacA4-catB3 array by Etest method in presence of clavulanic acid
Klebsiella pneumoniae [15] = assay: Antibacterial activity against Klebsiella pneumoniae isolate Kp211 harboring IncA/C plasmid and blaIMP-4-qacG2-aacA4-catB3 array by Etest method in presence of clavulanic acid
Citrobacter koseri = assay: Antibacterial activity against Citrobacter koseri isolate Ck211 harboring IncA/C plasmid and blaIMP-4-qacG2-aacA4-catB3 array by Etest method in presence of clavulanic acid
Escherichia coli [16] = assay: Antibacterial activity against Escherichia coli isolate Ec221 harboring IncA/C plasmid and blaIMP-4-qacG2-aacA4-catB3 array by Etest method in presence of clavulanic acid
Klebsiella oxytoca [17] = assay: Antibacterial activity against Klebsiella oxytoca isolate Ko238 harboring IncA/C plasmid and blaIMP-4-qacG2-aacA4-catB3 array by Etest method in presence of clavulanic acid
Serratia marcescens [18] = assay: Antibacterial activity against Serratia marcescens isolate Sm265 harboring IncA/C plasmid and blaIMP-4-qacG2-aacA4-catB3 array by Etest method in presence of clavulanic acid
Acinetobacter = assay: Antibacterial activity against Acinetobacter isolate A74510 harboring blaIMP-4-qacG2-aacA4-catB3 array by Etest method in presence of clavulanic acid
Acinetobacter baumannii = assay: Antibacterial activity against Acinetobacter baumannii isolate AbN450 harboring blaIMP-4-qacG2-aacA4-catB3 array by Etest method in presence of clavulanic acid
Klebsiella pneumoniae [19] = assay: Antibacterial activity against Klebsiella pneumoniae Kp1239 transconjugant harboring IncL/M plasmid and blaIMP-4-qacG2-aacA4-catB3 array by Etest method in presence of clavulanic acid
Klebsiella pneumoniae [20] = assay: Antibacterial activity against Klebsiella pneumoniae Kp2730 transconjugant harboring IncL/M plasmid and blaIMP-4-qacG2-aacA4-catB3 and dfrA12-orfF-aadA2 arrays by Etest method in presence of clavulanic acid
Citrobacter amalonaticus [21] = assay: Antibacterial activity against Citrobacter amalonaticus Ca3927 transconjugant harboring IncL/M plasmid and blaIMP-4-qacG2-aacA4-catB3 array by Etest method in presence of clavulanic acid
Klebsiella pneumoniae [22] = assay: Antibacterial activity against Klebsiella pneumoniae Kp7564 transconjugant harboring IncL/M plasmid and blaIMP-4-qacG2-aacA4-catB3 array by Etest method in presence of clavulanic acid
Klebsiella pneumoniae [23] = assay: Antibacterial activity against Klebsiella pneumoniae Kp38045 transconjugant harboring IncL/M plasmid and blaIMP-4-qacG2-aacA4-catB3 array by Etest method in presence of clavulanic acid
Escherichia coli [24] = assay: Antibacterial activity against Escherichia coli Ec9381 transconjugant harboring IncL/M plasmid and blaIMP-4-qacG2-aacA4-catB3 array by Etest method in presence of clavulanic acid
Morganella morganii [25] = assay: Antibacterial activity against Morganella morganii Mm1229 transconjugant harboring IncL/M plasmid and blaIMP-4-qacG2-aacA4-catB3 array by Etest method in presence of clavulanic acid
Klebsiella pneumoniae [26] = assay: Antibacterial activity against Klebsiella pneumoniae Kp3799 transconjugant harboring IncL/M plasmid and blaIMP-4-qacG2-aacA4-catB3 array by Etest method in presence of clavulanic acid
Klebsiella oxytoca [27] = assay: Antibacterial activity against Klebsiella oxytoca Ko0426 transconjugant harboring IncL/M plasmid and blaIMP-4-qacG2-aacA4-catB3 array by Etest method in presence of clavulanic acid
Klebsiella oxytoca [28] = assay: Antibacterial activity against Klebsiella oxytoca Ko1156 transconjugant harboring IncL/M plasmid and blaIMP-4-qacG2-aacA4-catB3 array by Etest method in presence of clavulanic acid
Escherichia coli [29] = assay: Antibacterial activity against Escherichia coli Ec158 transconjugant harboring IncA/C plasmid and blaIMP-4-qacG2-aacA4-catB3 array by Etest method in presence of clavulanic acid
Klebsiella pneumoniae [30] = assay: Antibacterial activity against Klebsiella pneumoniae Kp149 transconjugant harboring IncA/C plasmid and blaIMP-4-qacG2-aacA4-catB3 array by Etest method in presence of clavulanic acid
Escherichia coli [31] = assay: Antibacterial activity against Escherichia coli Ec221 transconjugant harboring IncA/C plasmid and blaIMP-4-qacG2-aacA4-catB3 array by Etest method in presence of clavulanic acid
Klebsiella oxytoca [32] = assay: Antibacterial activity against Klebsiella oxytoca Ko238 transconjugant harboring IncA/C plasmid and blaIMP-4-qacG2-aacA4-catB3 array by Etest method in presence of clavulanic acid
Klebsiella pneumoniae [33] = assay: Antibacterial activity against Klebsiella pneumoniae Kp204 transconjugant harboring IncA/C plasmid and blaIMP-4-qacG2-aacA4-catB3 array by Etest method in presence of clavulanic acid

Measured: MIC

CC1(C)S[C@@H]2[C@H](NC(=O)[C@H](N)c3ccc(O)cc3)C(=O)N2[C@H]1C(=O)O [AMOXICILLIN]
> 16 µg/mL: all assays above
